Assay results reported in ChEMBL document CHEMBL4184187, “Current knowledge on the nucleotide agonists for the P2Y2 receptor” (Bioorg Med Chem, 2018).

Assays:
[1] = target: T1, P2Y purinoceptor 2 (Homo sapiens, UniProt P41231); assay: Agonist activity at human P2Y2 receptor expressed in 1321N1 cells assessed as [3H]-inositol phosphate accumulation measured after 90 mins by anion exchange chromatographic method; format: functional, cell-based
[2] = target: T1, P2Y purinoceptor 2; assay: Agonist activity at P2Y2 receptor in BEA cells (unknown origin); format: functional, cell-based
[3] = target: T1, P2Y purinoceptor 2; assay: Agonist activity at P2Y2 receptor in NG108-15 cells (unknown origin); format: functional, cell-based
[4] = target: T1, P2Y purinoceptor 2; assay: Agonist activity at P2Y2 receptor (unknown origin); format: functional
[5] = target: T1, P2Y purinoceptor 2; assay: Agonist activity at P2Y2 receptor in human CF/T43 cells; format: functional, cell-based
[6] = target: P2Y purinoceptor 1 (Homo sapiens, UniProt P47900); assay: Antagonist activity at P2Y1 receptor (unknown origin); format: functional
Sequence of P2Y purinoceptor 1 (P47900 whole entry): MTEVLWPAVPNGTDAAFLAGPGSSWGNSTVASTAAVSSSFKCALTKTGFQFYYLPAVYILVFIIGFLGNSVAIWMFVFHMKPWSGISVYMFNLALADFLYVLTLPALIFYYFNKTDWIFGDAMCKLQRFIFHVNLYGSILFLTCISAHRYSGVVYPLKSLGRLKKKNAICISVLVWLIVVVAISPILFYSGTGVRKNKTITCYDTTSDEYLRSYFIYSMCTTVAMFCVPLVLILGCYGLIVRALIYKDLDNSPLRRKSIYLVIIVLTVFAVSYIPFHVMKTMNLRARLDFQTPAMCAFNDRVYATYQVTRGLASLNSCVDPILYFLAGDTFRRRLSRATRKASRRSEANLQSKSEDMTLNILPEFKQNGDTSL

T1 sequence (P41231 whole entry): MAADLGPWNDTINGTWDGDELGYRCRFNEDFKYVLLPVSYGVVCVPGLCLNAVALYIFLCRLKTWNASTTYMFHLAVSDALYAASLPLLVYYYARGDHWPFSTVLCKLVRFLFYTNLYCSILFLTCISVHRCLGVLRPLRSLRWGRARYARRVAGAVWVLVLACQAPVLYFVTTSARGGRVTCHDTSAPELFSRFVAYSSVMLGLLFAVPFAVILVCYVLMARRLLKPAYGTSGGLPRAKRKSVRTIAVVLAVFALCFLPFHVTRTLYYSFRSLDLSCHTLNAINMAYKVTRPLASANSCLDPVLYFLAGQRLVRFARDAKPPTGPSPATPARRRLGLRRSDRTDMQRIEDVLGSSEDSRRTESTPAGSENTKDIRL

EC50 [1] [nM] | SMILES | further results
29800 | CN(C)c1ccn([C@@H]2O[C@H](COP(=O)(O)OP(=O)(O)OP(=O)(O)O)[C@@H](O)[C@H]2O)c(=O)n1 | –
10200 | O=c1nc(N2CCOCC2)ccn1[C@@H]1O[C@H](COP(=O)(O)OP(=O)(O)OP(=O)(O)O)[C@@H](O)[C@H]1O | –
710 | O=c1[nH]c(=S)ccn1[C@@H]1O[C@H](COP(=O)(O)OP(=O)(O)OP(=O)(O)O)[C@@H](O)[C@H]1O | –
37800 | Nc1ccn([C@@H]2O[C@H](COP(=O)(O)OP(=O)(O)OP(=O)(O)O)[C@@H](O)[C@H]2O)c(=O)n1 [CYSTETINE TRIPHOSPHATE] | –
109 | C#CCNC(=O)COc1ccc(CCCO/N=c2\ccn([C@@H]3O[C@H](COP(=O)(O)OP(=O)(O)OP(=O)(O)O)[C@@H](O)[C@H]3O)c(=O)[nH]2)cc1 | –
840 | CCCCCCSc1ccn([C@@H]2O[C@H](COP(=O)(O)OP(=O)(O)OP(=O)(O)O)[C@@H](O)[C@H]2O)c(=O)n1 | –
– | O=c1[nH]c(=O)n([C@@H]2O[C@H](COP(=O)(O)OP(=O)(O)OP(=O)(O)O)[C@@H](O)[C@H]2O)cc1Br | EC50 [4]: 220 nM
3100 | CSc1ccn([C@@H]2O[C@H](COP(=O)(O)OP(=O)(O)OP(=O)(O)O)[C@@H](O)[C@H]2O)c(=O)n1 | –
– | Nc1ncnc2c1ncn2[C@@H]1O[C@H](COP(=O)(O)OP(=O)(O)OP(=O)(O)O)[C@@H](O)[C@H]1O [ADENOSINE TRIPHOSPHATE] | EC50 [2]: 200 nM; EC50 [3]: 180 nM; EC50 [5]: 200 nM
– | CNc1ncnc2c1ncn2[C@@H]1C[C@H](COP(=O)(O)O)[C@@H](OP(=O)(O)O)C1 | IC50 [6]: 148 nM
15500 | COc1ccn([C@@H]2O[C@H](COP(=O)(O)OP(=O)(O)OP(=O)(O)O)[C@@H](O)[C@H]2O)c(=O)n1 | –
26300 | CCCCCCNc1ccn([C@@H]2O[C@H](COP(=O)(O)OP(=O)(O)OP(=O)(O)O)[C@@H](O)[C@H]2O)c(=O)n1 | –
489000 | CCCCCCOc1ccn([C@@H]2O[C@H](COP(=O)(O)OP(=O)(O)OP(=O)(O)O)[C@@H](O)[C@H]2O)c(=O)n1 | –

SMILES | EC50 [1] [nM] | further results
O=c1ccn([C@@H]2O[C@H](COP(=O)(O)OP(=O)(O)OP(=O)(O)O)[C@@H](O)[C@H]2O)c(=O)[nH]1 [URIDINE TRIPHOSPHATE] | 120 | EC50 [2]: 160 nM; EC50 [3]: 1250 nM
